According to patent US10167293B2, “[8-(phenylsulfonyl)-3,8-diazabicyclo[3.2.1]oct-3-yl](1H-1,2,3-triazol-4-yl)methanones” (BAYER PHARMA AKTIENGESELLSCHAFT, priority 2016, dated 2019):

Target: recombinant human AKR1C3 (Homo sapiens (Human), UniProt P42330)
Experiment: AKR1C3-inhibitory activity assay (Coumberone to Coumberol fluorescence)
Type: biochemical
Conditions: recombinant human AKR1C3, 15 min pre-incubation, 10 μM NADPH, 0.3 μM Coumberone
Description: The AKR1C3-inhibitory activity of the substances of the present invention was measured in the AKR1C3 assay described in the paragraphs below.
Essentially, the enzyme activity is measured by quantification of the generation of Coumberol from Coumberone (Halim et al. J. AM. CHEM. SOC. 2008, 130:14123-14128 and Yee et al. Proc. Natl. Acad. Sci. USA 2006, 103:13304-13309). In this test, the increase of the highly fluorescent Coumberol by NADPH—(nicotinamide adenine dinucleotide phosphate)-dependent reduction of the non-fluorescent Coumberone by AKR1C3 was determined.
The enzyme used was recombinant human AKR1C3 (Aldo-keto reductase family 1 member C3; GenBank Accession No. NM_003739). This was expressed in E. coli as GST (glutathione S transferase) fusion protein and purified by glutathione Sepharose affinity chromatography. The GST was removed by digestion with thrombin and subsequent size exclusion chromatography (Dufort, I., Rheault, P., Huang, X F., Soucy, P., and Luu-The, V., Endocrinology 140, 568-574 (1999)).
For the assay, 50 nl of a 100-fold concentrated solution of the test substance in DMSO were pipetted into a black low-volume 384-well microtiter plate (Greiner Bio-One, Frickenhausen, Germany), 2.5 μl of a solution of AKR1C3 in assay buffer [50 mM potassium phosphate buffer pH 7, 1 mM DTT, 0.0022% (w/v) Pluronic F-127, 0.01% BSA (w/v) and protease inhibitor cocktail (Complete, EDTA-free Protease Inhibitor Cocktail from Roche)] were added and the mixture was incubated for 15 min to allow pre-binding of the substances to the enzyme prior to the enzyme reaction. The enzyme reaction was then started by addition of 2.5 μl of a solution of NADPH (20 μM→final concentration in 5 μl of assay volume is 10 μM) and Coumberone (0.6 μM→final concentration in 5 μl of assay volume is 0.3 μM) in assay buffer, and the resulting mixture was incubated at 22° C. for the reaction time of typically 90 min. The concentration of the AKR1C3 and the reaction time was adapted to the respective activity of the enzyme preparation and adjusted such that the assay was carried out in the linear range. Typical AKR1C3 concentrations were in the region of 1 nM. The reaction was stopped by addition of 2.5 μl of a stop solution consisting of 3 μM EM-1404 as inhibitor (U.S. Pat. No. 6,541,463) in 50 mM HEPES pH7.5 (3 μM EM-1404→final concentration in 7.5 μl of assay volume is 1 μM). The fluorescence of the Coumberole was then measured at 520 nm (excitation at 380 nm) using a suitable measuring instrument (Pherastar from BMG Labtechnologies). The intensity of the fluorescence was used as a measure of the amount of Coumberole formed and thus of the enzyme activity of AKR1C3. The data were normalized (enzyme reaction without inhibitor=0% inhibition; all other assay components, but no enzyme=100% inhibition).

recombinant human AKR1C3, sequence (P42330 whole entry): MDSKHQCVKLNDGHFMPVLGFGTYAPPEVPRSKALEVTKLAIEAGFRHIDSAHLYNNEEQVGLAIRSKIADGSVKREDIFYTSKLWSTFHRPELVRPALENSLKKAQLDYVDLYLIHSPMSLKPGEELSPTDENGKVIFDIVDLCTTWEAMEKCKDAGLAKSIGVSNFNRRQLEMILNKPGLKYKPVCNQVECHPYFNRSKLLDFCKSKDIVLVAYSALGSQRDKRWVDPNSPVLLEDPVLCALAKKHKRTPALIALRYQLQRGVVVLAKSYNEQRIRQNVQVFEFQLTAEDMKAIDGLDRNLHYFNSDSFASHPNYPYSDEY

Compound | IC50
O=C(c1cnn[nH]1)N1CC2CCC(C1)N2S(=O)(=O)c1cccc2nonc12 [Example 55, [8-(2,1,3-benzoxadiazol-4-ylsulfonyl)-3,8-diazabicyclo[3.2.1]oct-3-yl](1H-1,2,3-triazol-5-yl)methanone] | 2.7 nM
O=C(c1cnn[nH]1)N1CC2CCC(C1)N2S(=O)(=O)c1c(F)cccc1F [Example 24, {8-[(2,6-difluorophenyl)sulfonyl]-3,8-diazabicyclo[3.2.1]oct-3-yl}(1H-1,2,3-triazol-5-yl)methanone] | 1.8 nM
N#Cc1ccc(Cl)c(S(=O)(=O)N2C3CCC2CN(C(=O)c2cnn[nH]2)C3)c1 [Example 74, 4-chloro-3-{[3-(1H-1,2,3-triazol-5-ylcarbonyl)-3,8-diazabicyclo[3.2.1]oct-8-yl]sulfonyl}benzonitrile] | 5.5 nM
O=C(c1c[nH]nn1)N1CC2CCC(C1)N2S(=O)(=O)c1ccccc1C(F)(F)F [Example 2, 1H-1,2,3-triazol-4-yl[8-{[2-(trifluoromethyl)phenyl]sulfonyl}-3,8-diazabicyclo[3.2.1]oct-3-yl]methanone] | 1 nM
COc1ccc(S(=O)(=O)N2C3CCC2CN(C(=O)c2cnn[nH]2)C3)cc1 [Example 21, {8-[(4-methoxyphenyl)sulfonyl]-3,8-diazabicyclo[3.2.1]oct-3-yl}(1H-1,2,3-triazol-5-yl)methanone] | 2 nM
O=C(c1cnn[nH]1)N1CC2CCC(C1)N2S(=O)(=O)c1cc(Cl)ccc1C(F)(F)F [Example 34, [8-{[5-chloro-2-(trifluoromethyl)phenyl]sulfonyl}-3,8-diazabicyclo[3.2.1]oct-3-yl](1H-1,2,3-triazol-5-yl)methanone] | 1.9 nM
O=C(c1cnn[nH]1)N1CC2CCC(C1)N2S(=O)(=O)c1ccc(C(F)(F)F)cc1 [Example 36, 1H-1,2,3-triazol-5-yl[8-{[4-(trifluoromethyl)phenyl]sulfonyl}-3,8-diazabicyclo[3.2.1]oct-3-yl]methanone] | 3.3 nM
O=C(c1c[nH]nn1)N1CC2CCC(C1)N2S(=O)(=O)c1cc(F)ccc1F [Example 12, {8-[(2,5-difluorophenyl)sulfonyl]-3,8-diazabicyclo[3.2.1]oct-3-yl}(1H-1,2,3-triazol-4-yl)methanone] | 1.1 nM
O=C(c1cnn[nH]1)N1CC2CCC(C1)N2S(=O)(=O)c1ccccc1F [Example 15, {8-[(2-fluorophenyl)sulfonyl]-3,8-diazabicyclo[3.2.1]oct-3-yl}(1H-1,2,3-triazol-5-yl)methanone] | 1.5 nM
O=C(c1cnn[nH]1)N1CC2CCC(C1)N2S(=O)(=O)c1ccc(F)cc1Cl [Example 50, {8-[(2-chloro-4-fluorophenyl)sulfonyl]-3,8-diazabicyclo[3.2.1]oct-3-yl}(1H-1,2,3-triazol-5-yl)methanone] | 0.9 nM
O=C(c1cnn[nH]1)N1CC2CCC(C1)N2S(=O)(=O)c1ccc(O)cc1 [Example 37, {8-[(4-hydroxyphenyl)sulfonyl]-3,8-diazabicyclo[3.2.1]oct-3-yl}(1H-1,2,3-triazol-5-yl)methanone] | 2.8 nM
Cc1ccc(C)c(S(=O)(=O)N2C3CCC2CN(C(=O)c2cnn[nH]2)C3)c1 [Example 19, {8-[(2,5-dimethylphenyl)sulfonyl]-3,8-diazabicyclo[3.2.1]oct-3-yl}(1H-1,2,3-triazol-5-yl)methanone] | 1.1 nM
O=C(c1cnn[nH]1)N1CC2CCC(C1)N2S(=O)(=O)c1cccc2c1OCC2 [Example 69, [8-(2,3-dihydro-1-benzofuran-7-ylsulfonyl)-3,8-diazabicyclo[3.2.1]oct-3-yl](1H-1,2,3-triazol-5-yl)methanone] | 0.6 nM
O=C(c1cnn[nH]1)N1CC2CCC(C1)N2S(=O)(=O)c1ccc(OC(F)(F)F)cc1 [Example 41, 1H-1,2,3-triazol-5-yl[8-{[4-(trifluoromethoxy)phenyl]sulfonyl}-3,8-diazabicyclo[3.2.1]oct-3-yl]methanone] | 6.5 nM
COc1ccc(C#N)cc1S(=O)(=O)N1C2CCC1CN(C(=O)c1cnn[nH]1)C2 [Example 73, 4-methoxy-3-{[3-(1H-1,2,3-triazol-5-ylcarbonyl)-3,8-diazabicyclo[3.2.1]oct-8-yl]sulfonyl}benzonitrile] | 28 nM
O=C(c1cnn[nH]1)N1CC2CCC(C1)N2S(=O)(=O)c1cccc([N+](=O)[O-])c1 [Example 44, {8-[(3-nitrophenyl)sulfonyl]-3,8-diazabicyclo[3.2.1]oct-3-yl}(1H-1,2,3-triazol-5-yl)methanone] | 1.9 nM
O=C(c1cnn[nH]1)N1CC2CCC(C1)N2S(=O)(=O)c1cccc2ccccc12 [Example 39, [8-(naphthalen-1-ylsulfonyl)-3,8-diazabicyclo[3.2.1]oct-3-yl](1H-1,2,3-triazol-5-yl)methanone] | 1.3 nM
O=C(c1cnn[nH]1)N1CC2CCC(C1)N2S(=O)(=O)c1cc(Cl)ccc1F [Example 61, {8-[(5-chloro-2-fluorophenyl)sulfonyl]-3,8-diazabicyclo[3.2.1]oct-3-yl}(1H-1,2,3-triazol-5-yl)methanone] | 1.5 nM
O=C(c1cnn[nH]1)N1CC2CCC(C1)N2S(=O)(=O)c1ccc2nsnc2c1 [Example 58, [8-(2,1,3-benzothiadiazol-5-ylsulfonyl)-3,8-diazabicyclo[3.2.1]oct-3-yl](1H-1,2,3-triazol-5-yl)methanone] | 1.2 nM
COc1ccc(Cl)cc1S(=O)(=O)N1C2CCC1CN(C(=O)c1cnn[nH]1)C2 [Example 57, {8-[(5-chloro-2-methoxyphenyl)sulfonyl]-3,8-diazabicyclo[3.2.1]oct-3-yl}(1H-1,2,3-triazol-5-yl)methanone] | 9.7 nM
O=C(c1cnn[nH]1)N1CC2CCC(C1)N2S(=O)(=O)c1ccc(F)cc1 [Example 16, {8-[(4-fluorophenyl)sulfonyl]-3,8-diazabicyclo[3.2.1]oct-3-yl}(1H-1,2,3-triazol-5-yl)methanone] | 2.2 nM
O=C(c1cnn[nH]1)N1CC2CCC(C1)N2S(=O)(=O)c1cccc(Cl)c1F [Example 27, {8-[(3-chloro-2-fluorophenyl)sulfonyl]-3,8-diazabicyclo[3.2.1]oct-3-yl}(1H-1,2,3-triazol-5-yl)methanone] | 0.9 nM
O=C(c1cnn[nH]1)N1CC2CCC(C1)N2S(=O)(=O)c1cc(F)ccc1Cl [Example 70, {8-[(2-chloro-5-fluorophenyl)sulfonyl]-3,8-diazabicyclo[3.2.1]oct-3-yl}(1H-1,2,3-triazol-5-yl)methanone] | 0.5 nM
O=C(c1c[nH]nn1)N1CC2CCC(C1)N2S(=O)(=O)c1cc(Cl)cc(Cl)c1 [Example 9, {8-[(3,5-dichlorophenyl)sulfonyl]-3,8-diazabicyclo[3.2.1]oct-3-yl}(1H-1,2,3-triazol-4-yl)methanone] | 0.9 nM
O=C(c1cnn[nH]1)N1CC2CCC(C1)N2S(=O)(=O)c1cc(F)c(F)cc1F [Example 62, 1H-1,2,3-triazol-5-yl{8-[(2,4,5-trifluorophenyl)sulfonyl]-3,8-diazabicyclo[3.2.1]oct-3-yl}methanone] | 2.8 nM
N#Cc1c(Cl)cccc1S(=O)(=O)N1C2CCC1CN(C(=O)c1cnn[nH]1)C2 [Example 68, 2-chloro-6-{[3-(1H-1,2,3-triazol-5-ylcarbonyl)-3,8-diazabicyclo[3.2.1]oct-8-yl]sulfonyl}benzonitrile] | 1.3 nM
O=C(c1cnn[nH]1)N1CC2CCC(C1)N2S(=O)(=O)c1cccc(Cl)c1 [Example 5, {8-[(3-chlorophenyl)sulfonyl]-3,8-diazabicyclo[3.2.1]oct-3-yl}(1H-1,2,3-triazol-4-yl)methanone] | 1.2 nM
Cc1ccccc1S(=O)(=O)N1C2CCC1CN(C(=O)c1cnn[nH]1)C2 [Example 6, {8-[(2-methylphenyl)sulfonyl]-3,8-diazabicyclo[3.2.1]oct-3-yl}(1H-1,2,3-triazol-4-yl)methanone] | 1.7 nM
O=C(c1cnn[nH]1)N1CC2CCC(C1)N2S(=O)(=O)c1cccc2nsnc12 [Example 54, [8-(2,1,3-benzothiadiazol-4-ylsulfonyl)-3,8-diazabicyclo[3.2.1]oct-3-yl](1H-1,2,3-triazol-5-yl)methanone] | 1.2 nM
